Measured values as given in patent US10925858B2, “S-nitrosoglutathione (GSNO) and GSNO reductase inhibitors for use in therapy” (MUSC FOUNDATION FOR RESEARCH DEVELOPMENT, priority 2017, dated 2021).

Columns and labels:
[1] = system: RhoA; assay: RhoA activity assay in thrombin treated hBMVECs; type: cell-based, human; details: thrombin 0.1 unit/ml 5 min; L-NIO or FeTPPS 10 μM pretreated 30 min; GSNO or SIN-1 various concentrations pretreated 2 hr
Description: Cell culture: Primary human brain microvascular endothelial cells (hBMVECs) were purchased from Angio-Proteomie (Cat #: cAP-0002, Atlanta, Ga.). The cells were cultured in cell culture flasks or plates precoated with Quick Coating Solution (Angio-Proteomie; Cat #: cAP-01) and maintained in Endothelial Growth Medium (Angio-Proteomie; Cat #: cAP-02) at 37° C. under 5% CO2/95% air. When the cells were almost confluent, the medium was replaced with endothelial basal medium (Angio-Proteomie; Cat #: cAP-03) containing 0.5% fetal bovine serum (FBS; Life Technologies, Grand Island, N.Y.) about 8-12 hours before the experiment. No institutional approval was required for this study. The study was not pre-registered.
RhoA activity in hBMVECs was analyzed by RhoA Activation Assay Kit (Abeam Cat #: ab211164, Cambridge, Mass.). Briefly, following drug treatments, the cells were lysed with 1× Assay buffer provided in the kit. Lysates were centrifuged (14,000×g for 10 sec), and supernatants were incubated with agarose beads coupled to GST-Rhotekin-Rho binding domain (RBD) for 2 h at 4° C. Beads were then washed with 1× Assay buffer and GTP-bound RhoA was eluted with 2×SDS-PAGE sample buffer. Amounts of active (GTP-bound) RhoA were determined by Western blot analysis using antibody specific to RhoA (Abeam).

[2] = system: lymphocytes in blood; assay: Total lymphocyte count in blood of normal mice (lymphopenic effect); type: in vivo, C57BL/6 mice; details: normal mice without EAE, 1 mg/kg/day for 19 days
Description: The bloods collected in EDTA blood collection tubes (BD Biosciences) were analyzed by an automated hematology analyzer for counting total lymphocytes. For counting of each subset of lymphocytes, 50 μl of blood was mixed with staining buffer (20 μl) containing fluorescence labelled antibodies and red-blood-cells were lysed with FACS lysing solution (BD Biosciences) prior to fluorescence flow-cytometric analysis. For staining of CD3+, CD4+, and CD8+ cells, allophycocvanin (APC)-labeled anti-mouse CD3 (eBioscience clone 17A2), Fluorescein isothiocyanate (FITC)-labeled anti-mouse CD4 (eBioscience clone RM4-5), APC-labeled anti-mouse CD8 (eBioscience clone 53-6.7) and appropriate isotype matched controls.

[3] = system: CD4+ T cells (TH1, TH2, TH17, Treg); assay: Fluorescence flow cytometry of CD4+ T cell subsets in spinal cords of EAE mice; type: in vivo, C57BL/6 mice; details: EAE mice at peak of disease, 1 mg/kg/day
Description: (§1) Female C57BL/6 mice of 8-12 weeks of age, purchased from Jackson Laboratory, were provided with food and water ad libitum and were kept in pathogen free animal care facility of Medical University of South Carolina (MUSC) throughout the study. All procedures were conducted in accordance with accepted standards of humane care as approved by the Institutional Animal Care and Use Committee (Approved number: AR #1644). EAE was induced as described previously (Nath et al., 2009). Briefly, mice were immunized subcutaneously in the flank regions with MOG35-55 peptide (MOG; 200 μg; Peptide International) emulsified (1:1) in 100 ul complete Freund's adjuvant (CFA) on day 0 and day 7. Additionally, 300 ng of Pertussis toxin (Sigma-Aldrich, St. Louis, Mo.) was given on day 0 and day 2 by i.p. injection. Pertussis toxin used as per the standardized protocol reported by us and other investigators for the induction of EAE (Nath et al., 2009). Similarly, healthy control group received subcutaneous injection of PBS and CFA emulsion on day 0 and day 7. Clinical signs of EAE were scored by examiners blinded to experimental treatments using the following scale: 0=no clinical signs of disease; 1=piloerection and sluggish; 2=limp tail (ataxia); 2.5=ataxia with partial hind limb paralysis; 3=full paralysis of hind limb; 3.5=full paralysis of hind limb with paralysis of one fore limb; 4=full paralysis of two limbs; 4.5=moribund stage; 5=death. […] The drug treatments were continued till the termination of the study (day 41 post immunization). EAE animals without drug treatment received PBS. Likewise, healthy controls received vehicle.
Fluorescence flow cytometry analysis for each subset of CD4+ T cells (TH1, TH2, TH17, CD4+CD25+ FOXP3+ Treg, and CD4+CD25+ FOXP3− Treg) were performed based on our previous report with modification (Nath et al., 2004). Briefly, control mice, EAE mice. EAE mice treated with GSNO. […] The isolated CD4+ T cells were then resuspended with complete RPMI-media in 12-well plates (5×10^6 cells' 2 ml per well) containing MOG peptide (25 μg/ml) for 48 hrs. Following the centrifugation, the resulted supernatants were collected for ELISA for CD4+ subset specific cytokines (see below). The cell pellets were washed with cell staining solution (ebioscience, Waltham, Mass. USA) and stained with fluorescence labeled antibody specific to IFN-γ for TH1. IL-4 for TH2, IL-17 for TH17, CD25+ for total Treg. CD25+ and FOXP3+ for FOXP3+ Treg, and CD25+ and FOXP3− for FOXP3-Tregs (ebioscience, Waltham, Mass., USA). The cells were counted and analyzed using Beackman Coulter instrument (Beckman Coulter, Inc., Brea, Calif., USA).

[4] = system: CD4+ T cells (TH1, TH2, TH17, Treg); assay: Fluorescence flow cytometry, polarization/expansion of CD4+ T cell subsets in spleens of EAE mice; set-up: species or system C57BL/6 mice; details: EAE mice at peak of disease, ex vivo MOG restimulation
Description: as §1
Fluorescence flow cytometry analysis for each subset of CD4+ T cells (TH1, TH2, TH17, CD4+CD25+ FOXP3+ Treg, and CD4+CD25+ FOXP3− Treg) were performed based on our previous report with modification (Nath et al., 2004). Briefly, control mice, EAE mice. EAE mice treated with GSNO. […] Following the preparation of single cell suspension, red blood cells were lysed with Pharma lyse buffer (BD Pharmingen™) and the remaining spleen cells were washed with RPMI 1640. The isolated CD4+ T cells were then resuspended with complete RPMI-media in 12-well plates (5×10^6 cells' 2 ml per well) containing MOG peptide (25 μg/ml) for 48 hrs. Following the centrifugation, the resulted supernatants were collected for ELISA for CD4+ subset specific cytokines (see below). The cell pellets were washed with cell staining solution (ebioscience, Waltham, Mass. USA) and stained with fluorescence labeled antibody specific to IFN-γ for TH1. IL-4 for TH2, IL-17 for TH17, CD25+ for total Treg. CD25+ and FOXP3+ for FOXP3+ Treg, and CD25+ and FOXP3− for FOXP3-Tregs (ebioscience, Waltham, Mass., USA). The cells were counted and analyzed using Beackman Coulter instrument (Beckman Coulter, Inc., Brea, Calif., USA).

Structure (SMILES)	thrombin-induced RhoA activation [1]	numbers of total lymphocytes, CD3+ T cells, CD4+ T cells and CD8+ cells in blood [2]	number of CD4+ IFN-γ+ (TH1) cells in spinal cords [3]	number of CD4+ IL-17 (TH17) cells in spinal cords [3]	number of CD4+CD25+ FOXP3+ Treg cells in spinal cords [3]	number of CD4+CD25+ FOXP3− Treg cells in spinal cords [3]	number of total Treg cells (CD4+CD25+) in spinal cords [3]	polarization/expansion of CD4+CD25+ FOXP3+ Treg cells in spleens [4]	polarization/expansion of CD4+CD25+ FOXP3− Treg cells in spleens [4]	polarization/expansion of TH1 cells in spleens [4]	polarization/expansion of TH17 cells in spleens [4]	polarization/expansion of total Treg cells (CD4+CD25+) in spleens [4]	number of TH2 cells in the CNS [3]	TH2 polarization/expansion in spleens [4]
Cl.O=S(=O)([O-])c1ccc(-c2c3nc(c(-c4ccc(S(=O)(=O)O)cc4)c4ccc([nH]4)c(-c4ccc(S(=O)(=O)O)cc4)c4nc(c(-c5ccc(S(=O)(=O)O)cc5)c5ccc2[nH]5)C=C4)C=C3)cc1.[Fe] [FeTPPS, 5,10,15,20-Tetrakis(4-sulfonatophenyl)porphyrinato Iron (III), Cl, reference compound]	decreased													
N[C@@H](CCC(=O)N[C@@H](CSN=O)C(=O)NCC(=O)O)C(=O)O [GSNO, S-nitrosoglutathione]	inhibited	no obvious effect	no obvious effect	significantly decreased	without altering	significantly increased	increased	without altering	significantly increased	no obvious effect	significantly decreased	increased		
Cc1cc(C(N)=O)ccc1-n1c(CCC(=O)O)ccc1-c1ccc(-n2ccnc2)cc1 [N6022, reference compound]		did not affect	reduced	reduced	increased	increased		restored	increased	reduced	reduced		increased	fully restored
